Assay [1] has as its system temporal retinal explants (axonal outgrowth). Put plainly: Retinal explants outgrowth assay. The class given is cell-based, chick. The conditions noted are these: for outgrowth of retinal explants grown on RGMa proteins, peptide added to medium: 5 μg/ml in the medium. In short, it runs like this:
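Temporal retinal explants grown 18 h on PLL/laminin coverslips coated with RGMa protein or myelin (6 μg/cm2), in DMEM F-12 with 2% chick serum and 10% FBS. Rafts disrupted by pretreatment with 10 mM MβCD (12 min) or 2 U/ml cholesterol oxidase (1 h, 37 °C). Fiber length measured after PFA fixation and phalloidin staining.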

Assay [2] has as its system Neogenin association with lipid rafts. Put plainly: Lipid raft fractionation of injected chick brain/tecta. It is filed as in vivo. The conditions noted are these: injected into chick brain/optic tectum one day before fractionation. On the procedure:
Injected chick E8 tecta (4Ig, 2 mg/mL; N-raft, 1 mg/mL; methyl-β-cyclodextrin (10 mM)) or transfected cells (Neogenin and RGMa) were collected 24 hours later, lysed and placed at the bottom of a sucrose density gradient (0.9-0.8-0.75-0.7-0.6-0.5-0.4-0.2 M) and centrifuged at 38,000 rpm for 16 hours in SW 60 rotor (Beckman Instruments Inc.).
Proteins (4Ig, 2 mg/ml; N-Raft, 1 mg/mL; RGMaΔ, 5 mg/ml; methyl-β-cyclodextrin (10 mM)) were injected in chick E8 optic tectum and tecta were collected 24 hrs later. HEK cells were transfected with Neogenin and different RGMa constructs and collected 48 hrs later. For treatment with RGMaΔ, Neogenin transfected cells were treated with RGMaΔ (2 mg/ml) and BMP-2 (100 nM) and further incubated for 1 hr at 37° C. Tecta (3 tecta for each set of experiment) and/or cells were solubilized in chilled buffer (25 mM Tris-HCl, pH 7.4, 150 mM NaCl, 5 mM EDTA and protease inhibitor cocktail) and passed through G25 and G30 needles, respectively, and centrifuged at 800 g for 10 min at 4° C. Cold Triton X-100 was added to the post nuclear supernatant to a final concentration of 1% and incubated on ice for 1 hour. 2× volume of 2M sucrose was added and sample placed at the bottom of a sucrose density gradient (0.9-0.8-0.75-0.7-0.6-0.5-0.4-0.2 M) and centrifuged at 38,000 rpm for 16 hours in SW 60 rotor (Beckman Instruments Inc.). 400 μl fractions were collected from top (top numbered 1 and next eight fractions numbered consequently) and stored at −80° C.
As such, it was examined if overexpressing recombinant 4Ig and N-Raft competed with the endogenous 4Ig and N-Raft domains to displace Neogenin from the lipid raft fractions to the non-lipid raft fractions. Specifically, N-Raft, 4Ig-domain, or a control peptide, which was amino acid residues 50-99 of RGMa (also referred to herein as “N-RGMa^50-99”), was injected into the optic tectum at E8. The tecta were collected a day later for fractionation-analyses.

Assay [3] concerns RGC axons in injured optic nerve. Put plainly: Optic nerve crush, RGC axon regeneration (GAP-43) and intraretinal integrity. The class given is in vivo, rat. The conditions noted are these: for intraretinal integrity of RGC axons (CTB-FITC): after optic nerve crush. As to the method: All animals were female Sprague-Dawley rats weighing 250-300 g, which were kept in a pathogen free environment. […] Injections were performed using a 10-μl Hamilton syringe actuated by a computer controlled Picopump (World Precision Instruments). […] The needle was left in place for 10 min after each injection and slowly withdrawn to prevent reflux of the injected solutions up the needle tract.
Additionally, for crushing nerve surgical procedures, animals were placed in a stereotaxic frame and ventilated with isoflurane (2%; 0.8 L/min O2) through a gas anesthesia mask. […] The optic nerve was crushed using fine self-closing forceps for 6 seconds. Eventually, the orbital contents were gently returned to their original location and the initial incision was closed. Following surgery, under a heat lamp, animal were maintained at 37° C. in the normothermic condition and they were given Ketoprofen (5 mg/mL, dosage for rats: 0.1 mL/100 g bodyweight) and sterile saline to ease postsurgical recovery.
In order to evaluate the effects of 4Ig, N-Raft, and MβCD on RGC survival and regeneration after optic nerve crush, 4 μl intraocular injection of 4Ig (250 ng/μl) and N-Raft (150 ng/μl) solutions were delivered at 3 and 10 days after injury. Additionally, these two groups received 4Ig and N-Raft in a dose of 1 mg/kg, via intrajugular vein at 3 and 10 days postcrush. Separately, animals in MβCD group, received intraperitoneal injection of MβCD at 1000 mg/kg/week for 3 weeks after nerve crush on a once-a-day schedule.
Firstly, RGC axon regeneration and intraretinal integrity was examined at twenty-one days after optic nerve crush. […]. CTB-FITC was anterogradly transported within the axon to reach the synaptic membrane.
RGC axon regeneration was examined at twenty-one days after optic nerve crush. Animals were perfused with 4% paraformaldehyde via the ascending aorta, while the descending aorta was clamped off, and the optic nerves were removed. The nerves were post-fixed overnight in the same fixative solution, plus 30% sucrose in PBS for 7 days at […]. The fixed nerves were consecutively sectioned at 14 μm in thickness with a Leica CM1950 cryostat microtome. The slides were first incubated overnight at 4° C. in primary antisera directed against growth associated protein-43 (GAP-43), a marker of regenerating retinal ganglion cell axons in both neonatal and adult RGCs. Primary antisera (rabbit polyclonal, 1:250, Cell Signaling Technology/NEB) were diluted in PBS containing 0.3% Triton X-100 and 3% normal goat serum. Following primary antibody incubation, sections were rinsed three times for 15 minutes in PBS and followed by three hours incubation with FITC labeled secondary antibody at room temperature.
The slides were then rinsed three times for 15 minutes in PBS before cover slipping with 50:50 glycerol/PBS. The total number of regenerating axon growth cones within bins of the optic nerve, beginning anterior to the crush site and proceeding distally, were quantified. The bins were as follows: 0-250, 250-500, and >500 μm. A total of four equally spaced sections through the width of each optic nerve were examined and quantified using a Leica DM LFSA microscope (20× objective) with an Andor iXon 885+ camera, with EMgain applied.

The record followed here is US11497796B2, “Agents directed against a cis RGMa/neogenin interaction or lipid rafts and use of the same in methods of treatment” (UNIVERSITY HEALTH NETWORK, priority 2013, dated 2022).

On to “N-Raft: peptide spanning amino acids 28-73 of RGMa (SEQ ID NO:2) (SPCKILKCNSEFWAATSGSHHLGAEETPEFCTALRAYAHCTRRTAR; N-Raft - amino acids 28-73 of RGMa)”, for which, in assay [1], the “outgrowth of retinal explants grown on RGMa proteins, peptide added to medium” value is given as “restored outgrowth”. For the same molecule, the “effect on axonal outgrowth when provided as growth substrate (in trans)” value in assay [1] (protein as substrate) is “no effect”. The “Neogenin localization in membrane fractions” value in assay [2] is “relocalized from the lipid raft fractions to the heavy fractions”. In addition, the “regeneration beyond the lesion site” value in assay [3] (21 days after crush) was “comparable to 4Ig”. Moreover, the “intraretinal integrity of RGC axons (CTB-FITC)” value (shortened to “intraretinal integrity”) in assay [3] is given as “thicker axon bundles throughout the retina”.
Take “methyl-β-cyclodextrin [MβCD, reference compound]”: the “axonal outgrowth on RGMa proteins after lipid raft disruption” value in assay [1] (10 mM MβCD or 2 U/ml of CO) was “restored to control values”. Moreover, the “Neogenin localization in membrane fractions” value in assay [2] is recorded as “recovered in the non-lipid raft fraction”. For the same molecule, in assay [3] (IP injection), the “average number of axons per section, 250-500 μm” value is listed as 10.7±0.9; the “average number of axons per section, greater than 500 μm” value was found to be 8.4±1.4; the “average number of axons per section, less than 250 μm” value is on record as 23.7±1.2. For the same molecule, the “average number of axons per section higher than controls” value in assay [3] (IP injection, all distances) stood at 7.1 fold. Besides, the “intraretinal integrity” value in assay [3] is given as “thicker axon bundles throughout the retina”.

B1: 4Ig: four immunoglobulin-like domains of Neogenin, amino acids 1 to 383 of Accession No. AAC59662 (SEQ ID NO:1) (protein, listed as Gallus gallus)
chain: RSGPRSPLTGSVVRTFTPFYFLVEPMDILSVRGASVIMNCSSYCETPPKIEWKKDGTLLNLVSDDRRQLLPDGSLLINSVVHSKHNKPDEGYYQCVATVESLGSIVSRTAKLTVAGLPRFTSQPELSSVYKGNSAILNCEVNVDLAPFVRWEQDRQPLSLDDRVFKLPSGALLIGNATDTDGGFYRCVIESGGTPKYSEEAELKILPDPEEPQSLVFVRQPSSLTKVTGQNAVFPCVAGGFPTPYVRWTKNGEELITEDSERFALRAGGSLLISDVTEEDVGTYTCIADNENETIEAQAELAVQVPPEFLKRPANIYAHESMDIVFECEVTGKPTPTVKWVKNGDVVIPSDYFKIVKEHNLQVLGLVKSDEGFYQCIAENDVGNAQAGAQLIILDLDVAIPTLPPTSLTSATNDHLAPATTGPLPTAPRDVVATLVSTRFIRLTWRTPVSDPQGDNLTYSIFYTKEGINRERVENTSRPGETQVMIQNLMPETVYVFRVVAQNKHGHGESSAPLKVATQPEVQLPGPAPNIRAYAGSPTSVTVTWETPLSGNGEIQNYKLYYMEKGQDSEQDVDVAGLSYTITGLKKYTEYSFRVVAYNKHGPGVSTQDVVVRTLSDVPSAAPQNLTLEARNSKSIMLHWQPPPAGTHSGQITGYKIRYRKVSRKSDVTESVGGTQLFQLIEGLERGTEYNFRIAAMTVNGTGPATDWVSAETFESDLDESRVPEVPSSLHVRPLVTSIVVSWTPPENQNIVVRGYAIGYGIGSPHAQTIKVDYKQRYYTIENLDPSSHYVITLKAFNNVGEGIPLYESAVTRPHSDTSEVDLFVINAPYTPVPDPSPMMPPVGVQASILSHDTIRITWADNSLPKNQKITDARYYTVRWKTNIPANTKYKTANATTLSYLVTGLKPNTLYEFSVMVTKGRRSSTWSMTAHGTTFELVPTSPPKDVTVVSKEGKPRTIIVNWQPPSEANGKITGYIIYYSTDVNAEIHDWVIEPVVGNRLTHQIQELTLDTPYYFKIQARNSKGMGPMSEAVQFRTPKAESSDKMPNDQASGSAGKGSRPVDVGPDYKPPLSGSNSPHGSPTSPLDSNMLLVIIVSVGVITIVIVVIVAVFCTRRTTSHQKKKRAACKSVNGSHKYKGNSKDVKPPDLWIHHERLELKPIDKSPDPNPIMTDTPIPRNSQDITPVDNSMDSNIHQRRNSYRGHESEDSMSTLAGRRGMRPKMMMPFDSQPPQPVISAHPIHSLDNPHHHFHSGSLASPTRSYLHHQVSPWPVGTSMSHSDRANSTESVRNTPSSDTMPASSSQPCADHQDPDSSSGAYLGSAQEEDAAQSLPTAHVRPSHPLKSFAVPAVPAAGSAYDPTLPSTPLLTQQAPSHPVHSVKTASIGTLGRTRPPMPVVVPSAPDVQETTRMLEDSESSYEPDELTKEMAHLEGLMKDLNAITTA
modifications: Neogenin - Accession No. AAC59662
With B1, the “outgrowth of retinal explants grown on RGMa proteins, peptide added to medium” value in assay [1] is “restored outgrowth”. For the same molecule, the “Neogenin localization in membrane fractions” value in assay [2] was “relocalized from the lipid raft fractions to the heavy fractions”. In addition, the “increase in number of regenerating axons relative to controls” value in assay [3] (21 days after crush) was found to be 5.7 fold. For the same molecule, in assay [3] (21 days after crush, controls 76±24), the “number of regenerating axons, greater than 500 μm” value was 410±64. Also, the “number of regenerating axons, 250-500 μm” value in assay [3] (21 days after crush, controls 108±12) came to 640±128. Moreover, the “number of regenerating axons, less than 250 μm” value in assay [3] (21 days after crush, controls 224±36) is 1134±68. For the same molecule, the “intraretinal integrity” value in assay [3] is “thicker axon bundles throughout the retina”.
